According to patent US20230086152A1, “USE OF DESLORATADINE AND SALTS THEREOF IN PREPARING DRUG FOR TREATING NEURODEGENERATIVE DISEASE RELATED TO MOTOR DYSFUNCTION” (NANJING UNIVERSITY OF CHINESE MEDICINE, priority 2021, published 2023):

Key:
Format in all cases: in vivo
SOD1-G93A model mice [1] = assay: Rotarod experimental test; settings: model DLT group 20 mg/kg/day vs model solvent group; days 101 to 115; FIG. 1
From the text: 1) Rotarod experimental test: SOD1-G93A model mice will have motor dysfunction when they are onset, and therefore, the motor coordination and balance function of the forelimb and hind limbs can be assessed by detecting the duration that the mice stay on the rotarod.
(§1) 1) Animal grouping: Experimental test mice B6SJL-BTg (SOD1-G93A) 1Gur/J (002726) are purchased from Jackson Laboratory in the United States. A total of 48 SOD1-G93A mice are obtained by the gene identification, and their littermates are used as negative control, and they are randomly divided into 4 groups, which are: (1) a wild-type solvent group (2) a wild-type DLT group (20 mg/kg/day), (3) a model solvent group and (4) a model DLT group (20 mg/kg/day). All mice are administered from the age of 56 days (8 weeks old), and 12 mice in each group are sacrificed from the beginning of administration to the age of 120 days. […]
2) Rotarod experimental test: From the age of 60 days, the motor function of SOD1-G93A model mice is detected by the rotarod apparatus. […] Motor coordination and balance are evaluated for each mouse by measuring the mouse's total movement time on the rotarod apparatus. Three trials are performed for each mouse, and the longest dwell time before falling is recorded, and the longest dwell time is set at 180 seconds.

SOD1-G93A model mice [2] = assay: Cage experimental test (limb grip strength); settings: model DLT group 20 mg/kg/day vs model solvent group; age of 14 to 15 weeks; FIG. 3
From the text: 3) Cage experimental test: The SOD1-G93A model mice show atrophy of the hind limbs and decreased grip strength of the limbs after the onset of the disease. The handing strength at the limbs of the mice is detected by the cage experimental test.
as §1, with “days. Histopathological, biochemical and immunological analyses are performed on tissues such as blood, muscles and spinal cords from eyeballs of mice.” for “days.”
4) Cage experimental test: From the 8th week, the test is carried out once a week. […] The maximum time for the mice to grip the cage cover is recorded, the maximum time is set to be 90 seconds, and the specific time is recorded when it is less than 90 seconds. […]

SOD1-G93A model mice [3] = assay: Gait monitoring experimental test; settings: model DLT group 20 mg/kg/day vs model solvent group; after the 15th week; FIG. 2
Description: 1) Animal grouping: Experimental test mice B6SJL-BTg (SOD1-G93A) 1Gur/J (002726) are purchased from Jackson Laboratory in the United States. A total of 48 SOD1-G93A mice are obtained by the gene identification, and their littermates are used as negative control, and they are randomly divided into 4 groups, which are: (1) a wild-type solvent group (2) a wild-type DLT group (20 mg/kg/day), (3) a model solvent group and (4) a model DLT group (20 mg/kg/day). All mice are administered from the age of 56 days (8 weeks old), and 12 mice in each group are sacrificed from the beginning of administration to the age of 120 days. Histopathological, biochemical and immunological analyses are performed on tissues such as blood, muscles and spinal cords from eyeballs of mice. Compounds are administered to the remaining mice until their deaths, which is used to detect the onset time and survival cycle of mice.
3) Gait monitoring experimental test: In order to obtain footprints, the forefeet and hind feet of SOD1-G93A model mice are painted with red and green non-toxic pigments, respectively. The mice walk along a track with a length of 50 cm and a width of 10 cm, and the gaits of the mice are recorded. […] Footprints of the mice are analyzed, and the average of three result statistics is used in the analysis for recording the gait lengths of the mice.

SOD1-G93A model mice [4] = assay: Detection of onset time and survival cycle; settings: model DLT group 20 mg/kg/day from the age of 56 days, p<0.05
From the text: 4) Detection on onset time and survival cycle: The duration from onset to death of SOD1-G93A model mice is shorter, which is similar to the human ALS. Whether it can effectively delay the onset of the disease and prolong the survival cycle is an important indicator.
as §1
5) Detection of onset time and survival cycle: The onset time of transgenic mice is defined as the dates when they first fall from the rotarod apparatus and will not persist for 180 seconds. The dates of deaths of the transgenic mice are defined as the deaths of the mice if the righting reflex cannot be completed within 30 seconds when the mice are lying on their sides, and the days are recorded as the death dates of the mice.

## Clc1ccc2c(c1)CCc1cccnc1C2=C1CCNCC1 [desloratadine]
SOD1-G93A model mice [1]
  time stayed on the rotarod: much longer period of time
SOD1-G93A model mice [2]
  persistence in gripping the cage cover: persist better
SOD1-G93A model mice [3]
  gait length analysis: significantly better
SOD1-G93A model mice [4]; model solvent group 97.6±1.473 d, FIG. 4
  onset time (first fall from the rotarod): 103.4 ± 1.705 days
SOD1-G93A model mice [4]; model solvent group 126±1.721 d, FIG. 5
  survival cycle (failure to complete the righting reflex within 30 seconds): 131.6 ± 1.51 days
